# Results: the RepoRT retention time repository (doi:10.1021/acs.analchem.7b00925)
# Assay: HILIC, Merck SeQuant ZIC-HILIC, 100 × 2.1 mm, 3.5 µm, 25 °C, 0.3 mL/min, estimated dead time 0.73 min; A: water + 0.1% formic acid, pH 3; B: acetonitrile + 0.1% formic acid, pH 3; gradient (min/%B) 0/95 1.5/95 13.5/40 15.5/40 29.7/25 33.5/25 34.5/95 41.5/95
# Settings: stereoisomer not certain
row,Compound,LC retention time
1,CCCCC(N)C(=O)O (racemic) [DL-Norleucine],6.41 min
2,"Cn1c(=O)c2c([nH]c(=O)n2C)n(C)c1=O [1,3,7-trimethyluric acid]",1.87 min
3,"Cn1c(=O)[nH]c2[nH]c(=O)n(C)c2c1=O [1,7-dimethyluric acid]",3.78 min
4,O=C(O)Cn1ccnc1 [1-Imidazoleacetic acid],7.7 min
5,C[n+]1cccc(C(N)=O)c1 [1-Methylnicotinamide],8.28 min
6,CC(O)CN (configuration not stated) [1-amino-2-propanol],8.65 min
7,Cn1c(=O)[nH]c2[nH]c(=O)[nH]c2c1=O [1-methyluric acid],4.66 min
8,"O=c1[nH]cccc1O [2,3-Dihydroxypyridine]",4.47 min
9,"NC(CCCC(N)C(=O)O)C(=O)O (configuration not stated) [2,6-diaminopimelic acid]",11.1 min
10,CC(=O)c1cnccn1 [2-Acetylpyrazine],0.96 min
11,Nc1ccccc1C(=O)O [2-Aminobenzoic acid],1.24 min
12,Nc1ccccc1O [2-Aminophenol],6 min
13,O=c1[nH]c2ccccc2o1 [2-Benzoxazolinone],1.01 min
14,CC1CCCN1 (configuration not stated) [2-Methylpyrrolidine],6.72 min
15,O=C1CCCCN1 [2-Piperidone],1.85 min
16,O=C(O)Cc1ccccn1 [2-Pyridylacetic acid],4.67 min
17,O=c1[nH]cnc2c1ncn2C1CC(O)C(CO)O1 (configuration not stated) [2-deoxyinosine],4.69 min
18,O=C(O)CNC(=O)c1ccco1 [2-furoylglycine],1.46 min
19,"NC(Cc1ccc(O)c(O)c1)C(=O)O (configuration not stated) [3,4-dihydroxyphenylalanine]",8.17 min
20,"OCCc1ccc(O)c(O)c1 [3,4-dihydroxyphenylethanol]",2.27 min
21,Oc1cccnc1 [3-Hydroxypyridine],6.36 min
22,O=C(O)Cc1c[nH]c2ccccc12 [3-Indoleacetic acid],1.26 min
23,O=C(O)Cc1cccnc1 [3-Pyridylacetic acid],5.94 min
24,O=C(O)[C@H]1NCCC1O (some centres not stated) [3-hydroxyproline],8.12 min
25,Cn1cncc1CC(N)C(=O)O (configuration not stated) [3-methylhistidine],12 min
26,Nc1ccc(O)cc1 [4-Aminophenol],8.1 min

row,Compound,LC retention time
1,Nc1ccc(C(=O)O)c(O)c1 [4-Aminosalicylic acid],1.3 min
2,NC(N)=NCCCC(=O)O [4-Guanidinobutanoic acid],7.51 min
3,CC(CCC(=O)[O-])[N+](C)(C)C (configuration not stated) [4-aminovaleric acid betaine],5.95 min
4,Cc1ncc(CO)c(C(=O)O)c1O [4-pyridoxic acid],4.14 min
5,C[N+](C)(C)CCCCC(=O)[O-] [5-Aminovaleric acid betaine],6.01 min
6,NCC(=O)CCC(=O)O [5-aminolevulinic acid],8.57 min
7,O=C(O)Cc1c[nH]c2ccc(O)cc12 [5-hydroxyindoleacetate],3.62 min
8,NC(Cc1c[nH]c2ccc(O)cc12)C(=O)O (configuration not stated) [5-hydroxytryptophan],7.58 min
9,Cn1cnc2nc(N)[nH]c(=O)c21 [7-methylguanine],6.62 min
10,Cn1cnc2[nH]c(=O)[nH]c(=O)c21 [7-methylxanthine],2.72 min
11,Nc1nc2c([nH]c(=O)n2C2OC(CO)C(O)C2O)c(=O)[nH]1 (configuration not stated) [8-hydroxyguanosine],6.1 min
12,CC(=O)OCC[N+](C)(C)C [Acetylcholine],3.46 min
13,CC(=O)NC(CCCNC(N)=O)C(=O)O (configuration not stated) [Acetylcitrulline],5.09 min
14,Nc1ncnc2c1ncn2C1OC(COP(=O)(O)O)C(O)C1O (configuration not stated) [Adenosine mono-phosphate],8.41 min
15,CNCC(O)c1ccc(O)c(O)c1 (configuration not stated) [Adrenaline],8.61 min
16,NCCCCN=C(N)N [Agmatine],15.3 min
17,CC(C(=O)[O-])[N+](C)(C)C (configuration not stated) [Alanine betaine],7.32 min
18,CC(N)C(=O)O (configuration not stated) [Alanine],8.06 min
19,CC(C)CC(NC(=O)C(C)N)C(=O)O (configuration not stated) [Alanyl-leucine],6.54 min
20,O=c1[nH]c(=O)c2cn[nH]c2[nH]1 [Alloxanthine],4.27 min
21,[NH3+]CCCCCC(=O)[O-] [Aminocaproate],7.15 min
22,CC1(C)SC2C(NC(=O)C(N)c3ccc(O)cc3)C(=O)N2C1C(=O)O (configuration not stated) [Amoxicillin],6.82 min
23,NC(=NCCCC(N)C(=O)O)NC(CC(=O)O)C(=O)O (configuration not stated) [Argininosuccinic acid],11.3 min
24,CC(NC(=O)C(Cc1ccccc1)NC(=O)C(N)CC(=O)O)C(=O)O (stereo not drawn) [Asp-Phe-Ala],6.71 min
25,NC(=O)CC(N)C(=O)O (configuration not stated) [Asparagine],8.67 min
26,COC(=O)C(Cc1ccccc1)NC(=O)C(N)CC(=O)O (configuration not stated) [Aspartame],5.89 min

row,Compound,LC retention time
1,NC(COCc1ccccc1)C(=O)O (configuration not stated) [Benzylserine],5.46 min
2,CC(O)C(O)c1cnc2nc(N)[nH]c(=O)c2n1 (configuration not stated) [Biopterin],6.01 min
3,O=S(=O)(O)CCNC1CCCCC1 [CHES],5 min
4,NCCC(=O)NC(Cc1cnc[nH]1)C(=O)O (configuration not stated) [Carnosine],13.1 min
5,CC(CCC(=O)O)C1CCC2C3C(O)CC4CC(O)CCC4(C)C3CCC12C (configuration not stated) [Chenodeoxycholic acid],1.3 min
6,O=C(C=Cc1ccc(O)c(O)c1)OC1CC(O)(C(=O)O)CC(O)C1O (configuration not stated) [Chlorogenic acid],4.42 min
7,C[N+](C)(C)CCOP(=O)(O)OP(=O)([O-])OCC1OC(n2ccc(N)nc2=O)C(O)C1O (configuration not stated) [Citicholine],10.6 min
8,NC(=O)NCCCC(N)C(=O)O (configuration not stated) [Citrulline],8.89 min
9,CN1C(=O)CCC1c1cccnc1 (configuration not stated) [Cotinine],5.16 min
10,NC(CCSCC(N)C(=O)O)C(=O)O (configuration not stated) [Cystathionine],10.5 min
11,NC(CSS(=O)(=O)O)C(=O)O (configuration not stated) [Cysteine-S-sulfate],7.64 min
12,NC(CS)C(=O)O (configuration not stated) [Cysteine],7.62 min
13,N[C@H]1C(O)O[C@H](COP(=O)(O)O)[C@@H](O)[C@@H]1O (stereo partly drawn) [D-glucosamine-6-phosphate],10 min
14,OCCNCCO [Diethanolamine],8.22 min
15,O=C1CC(C(=O)O)NC(=O)N1 (configuration not stated) [Dihydroorotic acid],4.02 min
16,CC1=NCCC(C(=O)O)N1 (configuration not stated) [Ectoine],6.85 min
17,OCC(O)C(O)CO (configuration not stated) [Erythritol],5.11 min
18,O=C(O)c1cc(O)c(O)c(O)c1 [Gallic acid],4.67 min
19,O=C1OC(CO)C(O)C(O)C1O (configuration not stated) [Gluconolactone],4.49 min
20,NC1C(O)OC(CO)C(O)C1O (configuration not stated) [Glucosamine],10.5 min
21,OCC1OC(O)C(O)C(O)C1O (configuration not stated) [Glucose],6.86 min
22,NC(=O)CCC(N)C(=O)O (configuration not stated) [Glutamine],8.52 min
23,NC(N)=NCC(=O)O [Glycocyamine],8.52 min
24,NCC(=O)NCC(=O)O [Glycyl-glycine],9.29 min
25,CC(C)C(NC(=O)CN)C(=O)O (configuration not stated) [Glycyl-valine],7.08 min
